In PMC10518717, “High-Throughput Screening and Proteomic Characterization of Compounds Targeting Myeloid-Derived Suppressor Cells” (Molecular & Cellular Proteomics : MCP, 2023):

Target: T1, NUP-MDSC cell lysate (Mus musculus, UniProt P59644)
T1 construct: endogenous in cells; host or cells: mouse NUP-MDSC (lysate)
T1 sequence (P59644 1-1003): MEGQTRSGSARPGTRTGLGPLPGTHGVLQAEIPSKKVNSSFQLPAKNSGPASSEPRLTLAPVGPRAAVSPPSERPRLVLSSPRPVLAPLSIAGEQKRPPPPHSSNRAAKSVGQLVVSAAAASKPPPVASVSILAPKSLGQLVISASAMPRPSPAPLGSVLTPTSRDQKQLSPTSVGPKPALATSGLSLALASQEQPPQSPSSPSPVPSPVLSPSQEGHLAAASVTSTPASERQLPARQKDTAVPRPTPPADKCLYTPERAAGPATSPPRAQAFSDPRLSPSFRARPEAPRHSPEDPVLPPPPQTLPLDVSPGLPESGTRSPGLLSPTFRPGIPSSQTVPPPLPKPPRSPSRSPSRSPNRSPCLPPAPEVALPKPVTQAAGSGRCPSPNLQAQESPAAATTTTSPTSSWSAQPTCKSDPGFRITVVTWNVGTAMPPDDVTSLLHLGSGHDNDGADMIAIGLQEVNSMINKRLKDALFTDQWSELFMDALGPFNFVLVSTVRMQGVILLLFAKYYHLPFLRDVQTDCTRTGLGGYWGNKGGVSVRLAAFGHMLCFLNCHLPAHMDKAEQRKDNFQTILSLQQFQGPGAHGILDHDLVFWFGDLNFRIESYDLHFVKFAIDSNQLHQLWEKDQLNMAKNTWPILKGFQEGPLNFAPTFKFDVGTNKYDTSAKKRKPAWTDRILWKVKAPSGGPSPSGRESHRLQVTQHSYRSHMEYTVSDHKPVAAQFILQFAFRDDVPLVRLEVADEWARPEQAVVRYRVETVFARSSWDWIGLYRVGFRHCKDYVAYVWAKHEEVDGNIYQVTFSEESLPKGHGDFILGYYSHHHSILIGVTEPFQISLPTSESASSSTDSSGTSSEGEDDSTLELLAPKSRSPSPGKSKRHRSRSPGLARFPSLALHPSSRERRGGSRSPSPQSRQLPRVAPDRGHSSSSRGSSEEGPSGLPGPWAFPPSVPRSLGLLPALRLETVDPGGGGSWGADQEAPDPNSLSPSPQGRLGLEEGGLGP
Test: Solvent-induced protein precipitation profiling, proteome-wide
Type: binding
Conditions: protein Inpp5j; soluble fraction; 26 uM
Protocol: NUP-MDSCs were differentiated as described above, washed twice with PBS, resuspended in lysis buffer (PBS, 0.4% IGEPAL CA-630, 1× Halt Protease-Inhibitor Cocktail (Thermo Fisher Scientific)), and subjected to three freeze-thaw cycles. The lysate was cleared by centrifugation for 30 min at 18,000g and 4 °C. The soluble fraction was diluted to 4 mg/ml and allowed to warm up to room temperature. Equal volumes of lysate were treated in triplicates with 100 x compound stock solutions (in DMSO) or DMSO for 15 min at room temperature (final concentrations: cmpd 2: 7.8 μM (3xEC50) and 26 μM (10xEC50), cmpd 3: 10 μM and 26 μM). Similar to a previous study ([46]), each sample was divided into eight aliquots to be denatured using different concentrations (8%, 10%, 12%, 14%, 16%, 18%, 20%, 22%) of acetone:ethanol:acetic acid (50:50:0.1) in water for 20 min at 37 °C with vigorous shaking. Aggregated proteins were separated by centrifugation for 45 min at 4 °C and 3900g. Next, equal amounts of the soluble fraction were pooled for subsequent proteomic analysis.
Methanol was added to 100 μg of the pooled supernatants to a final concentration of 70% and further processed according to the R2P1 protocol ([47]), with tryptic digestion performed in 50 mM Hepes (pH 8.5). Elution fractions were combined and dried by vacuum centrifugation. Dried samples were resuspended in deionized water, and TMT labeling was performed according to Zecha et al. ([35]). All 15 samples (5 treatment conditions in triplicates) were labeled with one TMTpro plex. Next, equal amounts were pooled and desalted by C18 solid-phase extraction cartridges (Sep-Pak Vac 1 cc C18 Cartridges, Waters Corp). Desalted peptides were chromatographically separated via basic reversed phase chromatography as previously described ([36]) into 24 fractions, dried down, and stored at −20 °C until further analysis.
Peptides were analyzed via LC-MS/MS on a Vanquish Neo UHPLC coupled to an Orbitrap Eclipse Tribrid mass spectrometer (Thermo Fisher Scientific). […] The mass spectrometer was operated in data-dependent mode and positive ionization mode. Samples were measured, employing a MS3 method with real-time search. […] Iontrap-MS2 spectra for peptide identification were acquired using HCD fragmentation with 35% NCE, an isolation window of 0.7 m/z, an AGC target value of 5e4 charges, and a maxIT of 35 ms. To obtain quantitative information on TMT reporter ions, each peptide precursor was fragmented again as for MS2 analysis followed by synchronous selection of the up to 10 most intense peptide fragments in the iontrap ([37]) and further fragmentation via HCD using an NCE of 55%. For the MS3 scan, real-time search was enabled to only trigger a MS3 scan for peptides that are TMT-labeled and can be identified (searched against a mouse database, same as used for maxquant processing). The MS3 scan was recorded in the OT at 30,000 resolution (scan range 110–500 m/z, isolation window of 0.7 m/z, AGC of 2e4 charges, maxIT of 120 ms). The cycle time was set to 3 s, and the dynamic exclusion lasted for 60 s.
Raw files were searched with Maxquant (v. 2.0.3.0) against the mouse reference proteome (UP000000589, canonical, download 10/2019, 55,029 entries) with standard settings for reporter ion MS3 unless described otherwise ([39]). Isotope impurities of the TMT lot were specified to allow MaxQuant the automated correction of TMT intensities. […] Trypsin/P was specified as the proteolytic enzyme with up to two missed cleavage sites allowed. […]

With `CCOC(=O)c1nnn(-c2nn3nnnc3c3ccccc23)c1C` [compound 2] the “log2 FC cmpd2_26uM/cmpd3_26uM” value was 0.07.
